Results as given in patent publication US20260217701A1, “SELECTIVE BET INHIBITORS AND USES THEREOF” (Tay Therapeutics Limited, priority 2022, published 2026).
Values joined by “and” are separate entries in the source; they are usually repeats but may differ in a detail not shown here. Identical values can stand only once.

Tested on: imiquimod-induced psoriasis
Assay: Imiquimod-induced psoriasis model
Format: in vivo, mice
Settings: for PASI Scores / Number Licking / Number Licking + Scratching / Number Scratching / Distance Traveled / Number Rearings: individual animals; for Distance Traveled / Number Rearings: behavioral evaluation
Summary of the method: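 Mice given topical imiquimod (5% cream) daily on depilated backs Days 1–14; Compound A in 5% DMSO/40% PEG-400/55% saline from Day 8, clobetasol topical as reference. Daily PASI (erythema, induration, peeling, each 0–4, summed) Days 8–15; spleen weight, open-field behaviour, serum IL-1B, IL-6, IL-17, TNF-α, IL-22, IL-23 at Day 15.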

[1] = IMI-psoriasis model, behavioral evaluation D15, 1 mg/kg
[2] = IMI-psoriasis model, behavioral evaluation D15, 3 mg/kg
[3] = IMI-psoriasis model, behavioral evaluation D15, 10 mg/kg

Cn1cc(-c2ccccc2)c(-c2cn(C)c(=O)c3[nH]c(-c4cnn(C(F)(F)F)c4)cc23)cc1=O [Compound A, 6-methyl-4-(1-methyl-2-oxo-5-phenyl-1,2-dihydropyridin-4-yl)-2-(1-(trifluoromethyl)-1H-pyrazol-4-yl)-1,6-dihydro-7H-pyrrolo[2,3-c]pyridin-7-one]
PASI Scores (IMI + Compound A 1 mg/kg, D12, 1 mg/kg): 6 and 4 (4×) and 5 (2×) and 3
PASI Scores (IMI + Compound A 1 mg/kg, D13, 1 mg/kg): 3 (4×) and 2 (2×) and 4 and 5
PASI Scores (IMI + Compound A 1 mg/kg, D14, 1 mg/kg): 1 (2×) and 2 (3×) and 3 (3×)
PASI Scores (IMI + Compound A 1 mg/kg, D15, 1 mg/kg): 1 (5×) and 2 (2×) and 0
PASI Scores (IMI + Compound A 3 mg/kg, D8 (day treatment started), 3 mg/kg): 8 and 6 and 7 and 5 and 9
PASI Scores (IMI + Compound A 3 mg/kg, D9, 3 mg/kg): 8 (3×) and 5 and 6
PASI Scores (IMI + Compound A 3 mg/kg, D10, 3 mg/kg): 6 and 7 and 4 and 5 (2×)
PASI Scores (IMI + Compound A 3 mg/kg, D11, 3 mg/kg): 4 (2×) and 3 (2×) and 5
PASI Scores (IMI + Compound A 3 mg/kg, D12, 3 mg/kg): 3 and 4 and 2 and 5
PASI Scores (IMI + Compound A 3 mg/kg, D13, 3 mg/kg): 2 (3×) and 0
PASI Scores (IMI + Compound A 3 mg/kg, D14, 3 mg/kg): 2 and 0 (2×) and 1
PASI Scores (IMI + Compound A 3 mg/kg, D15, 3 mg/kg): 1 (2×) and 0 (2×)
Use Enrichment D1 (IMI-psoriasis model, D1, 1 mg/kg, per cage (two animals)): 4.0
Use Enrichment D1 (IMI-psoriasis model, D1, 3 mg/kg, per cage (two animals)): 4.0 and 3.5
Use Enrichment D1 (IMI-psoriasis model, D1, 10 mg/kg, per cage (two animals)): 4.0
Use Enrichment D8 (IMI-psoriasis model, D8, 1 mg/kg, per cage (two animals)): 1.0 and 1.5
Use Enrichment D10 (IMI-psoriasis model, D10, 1 mg/kg, per cage (two animals)): 2.5 and 3.5 and 2.0
Use Enrichment D10 (IMI-psoriasis model, D10, 3 mg/kg, per cage (two animals)): 2.0 and 3.0
Use Enrichment D10 (IMI-psoriasis model, D10, 10 mg/kg, per cage (two animals)): 3.0 and 4.0
Use Enrichment D11 (IMI-psoriasis model, D11, 1 mg/kg, per cage (two animals)): 3.0 and 4.0 and 2.0
Use Enrichment D11 (IMI-psoriasis model, D11, 3 mg/kg, per cage (two animals)): 3.0 and 4.0
Use Enrichment D11 (IMI-psoriasis model, D11, 10 mg/kg, per cage (two animals)): 3.0 and 4.0
Use Enrichment D12 (IMI-psoriasis model, D12, 1 mg/kg, per cage (two animals)): 2.0 and 2.5 and 4.0
Use Enrichment D12 (IMI-psoriasis model, D12, 3 mg/kg, per cage (two animals)): 3.0
Use Enrichment D12 (IMI-psoriasis model, D12, 10 mg/kg, per cage (two animals)): 2.0 and 4.0 and 3.0
Use Enrichment D13 (IMI-psoriasis model, D13, 1 mg/kg, per cage (two animals)): 4.0
Use Enrichment D13 (IMI-psoriasis model, D13, 3 mg/kg, per cage (two animals)): 4.0
Use Enrichment D13 (IMI-psoriasis model, D13, 10 mg/kg, per cage (two animals)): 4.0
Use Enrichment D14 (IMI-psoriasis model, D14, 1 mg/kg, per cage (two animals)): 4.0
Use Enrichment D14 (IMI-psoriasis model, D14, 3 mg/kg, per cage (two animals)): 4.0
Use Enrichment D14 (IMI-psoriasis model, D14, 10 mg/kg, per cage (two animals)): 4.0
Use Enrichment D15 (IMI-psoriasis model, D15, 1 mg/kg, per cage (two animals)): 4.0
Use Enrichment D15 (IMI-psoriasis model, D15, 3 mg/kg, per cage (two animals)): 4.0
Use Enrichment D15 (IMI-psoriasis model, D15, 10 mg/kg, per cage (two animals)): 4.0
Number Licking [1]: 3 (2×) and 5 and 1 and 4 and 2 (2×) and 0
Number Licking + Scratching [1]: 3 (2×) and 5 (2×) and 8 and 2 (2×) and 0
Number Scratching [1]: 0 (6×) and 7 and 1
Number Licking [2]: 3 and 5 and 1 (3×) and 4 (2×)
Number Licking + Scratching [2]: 3 and 5 and 1 (3×) and 4 (2×)
Number Scratching [2]: 0
Number Licking [3]: 2 (4×) and 7 and 1 and 4 and 5
Number Licking + Scratching [3]: 3 and 11 and 2 (3×) and 4 (2×) and 5
Number Scratching [3]: 1 (2×) and 4 and 0 (4×) and 2
Distance Traveled (IMI-psoriasis model, 1 mg/kg): 18 m and 11 m and 14 m (2×) and 12 m and 16 m (2×) and 4 m
Number Rearings (IMI-psoriasis model, 1 mg/kg): 42 and 52 and 50 and 55 and 35 and 78 and 46 and 4
Distance Traveled (IMI-psoriasis model, 3 mg/kg): 12 m (3×) and 13 m (2×) and 8 m and 9 m
Number Rearings (IMI-psoriasis model, 3 mg/kg): 41 and 43 and 34 (2×) and 24 and 8 and 47
Distance Traveled (IMI-psoriasis model, 10 mg/kg): 4 m and 13 m (2×) and 10 m and 8 m and 7 m and 6 m and 11 m
Number Rearings (IMI-psoriasis model, 10 mg/kg): 6 and 39 and 38 and 46 and 11 and 21 and 13 and 55
Use Enrichment Mean D1-D8 (IMI-psoriasis model, mean D1-D8, 1 mg/kg, per cage (two animals)): 2.50 and 2.75
Use Enrichment Mean D1-D8 (IMI-psoriasis model, mean D1-D8, 3 mg/kg, per cage (two animals)): 2.50 and 2.00 and 2.25
Use Enrichment Mean D1-D8 (IMI-psoriasis model, mean D1-D8, 10 mg/kg, per cage (two animals)): 2.50 and 2.75 and 2.00
Use Enrichment Mean D8-D15 (IMI-psoriasis model, mean D8-D15, 1 mg/kg, per cage (two animals)): 3.00 and 3.36 and 3.14
Use Enrichment Mean D8-D15 (IMI-psoriasis model, mean D8-D15, 3 mg/kg, per cage (two animals)): 3.00 and 3.14 and 2.86
